How the values were obtained:
Assay type in all cases: biochemical
human DPP IV = molecular target: T1, human DPP IV (Homo sapiens, UniProt P27487); assay: DPP IV activity screening (Ala-Pro-AMC fluorescence)
T1 construct: extracellular fragment of protease DPP IV (aa29-766); made in house; host or cells: baculovirus expression system Bac-to-Bac
Protocol: (§1) Screening method: dipeptidyl peptidase IV (DPP IV) activity screening, dipeptidyl peptidase 7 (DPP 7), dipeptidyl peptidase 8 (DPP 8) activity screening, and dipeptidyl peptidase 9 (DPP 9) activity screening.
Instruments: Microplate Reader (PerkinElmer, USA).
The linear change of fluorescence value at 460 nm in unit time was dynamically measured and DPP IV activity was obtained by calculation.
(§2) Sample treatment: the sample was dissolved in DMSO and stored in low temperature. The concentration of DMSO in the final system was controlled so that the detected activity was not affected.
(§3) The activity of sample was tested under the selected single concentration from preliminary screening, for example, 20 μg/mL. […] The software for calculation was Graphpad Prism 4 and the model used for fitting was sigmoidal dose-response (variable slope). For most inhibitor screening models, the bottom and top of the fitting curve were set to 0 and 100.

[1] = molecular target: dipeptidyl peptidase 7 (DPP 7) (Homo sapiens, UniProt Q9UHL4); assay: DPP 7 activity screening; conditions: N.I. = No Inhibition
Protocol: as §1, §2, §3

human DPP 8 = molecular target: T2, human DPP 8 (Homo sapiens, UniProt Q6V1X1); assay: DPP 8 activity screening (Ala-Pro-AMC fluorescence); conditions: N.I. = No Inhibition
T2 construct: made in house; host or cells: insect cells, baculovirus Bac-to-Bac
T2 sequence (Q6V1X1 whole entry): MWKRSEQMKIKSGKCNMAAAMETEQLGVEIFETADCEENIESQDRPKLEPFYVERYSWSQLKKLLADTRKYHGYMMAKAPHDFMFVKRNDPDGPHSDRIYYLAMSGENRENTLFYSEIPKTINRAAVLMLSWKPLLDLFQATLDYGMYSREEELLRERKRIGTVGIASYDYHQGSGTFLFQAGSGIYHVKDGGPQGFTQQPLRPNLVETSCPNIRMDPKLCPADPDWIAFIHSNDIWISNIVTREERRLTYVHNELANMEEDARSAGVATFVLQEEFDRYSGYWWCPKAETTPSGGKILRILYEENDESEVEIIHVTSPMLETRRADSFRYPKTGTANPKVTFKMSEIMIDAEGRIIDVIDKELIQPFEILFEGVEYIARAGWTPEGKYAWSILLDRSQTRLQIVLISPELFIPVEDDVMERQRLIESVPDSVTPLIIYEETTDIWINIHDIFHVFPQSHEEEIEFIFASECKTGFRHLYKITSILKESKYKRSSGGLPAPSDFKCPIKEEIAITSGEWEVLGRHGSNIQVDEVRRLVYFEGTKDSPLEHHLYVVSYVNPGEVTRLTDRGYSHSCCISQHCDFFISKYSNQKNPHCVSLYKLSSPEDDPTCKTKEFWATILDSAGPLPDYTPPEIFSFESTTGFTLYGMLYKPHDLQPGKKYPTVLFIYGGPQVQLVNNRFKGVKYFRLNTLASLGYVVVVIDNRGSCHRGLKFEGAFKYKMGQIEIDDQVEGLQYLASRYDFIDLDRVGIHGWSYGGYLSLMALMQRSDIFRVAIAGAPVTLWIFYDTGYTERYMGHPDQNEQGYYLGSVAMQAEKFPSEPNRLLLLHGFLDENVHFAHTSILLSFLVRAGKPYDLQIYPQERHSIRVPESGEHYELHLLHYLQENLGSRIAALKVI
Description: as §1
(§4) Materials: human DPP IV, obtained extracellular fragment of protease DPP IV (aa29-766), was expressed and purified by our laboratory using baculovirus expression system Bac-to-Bac (purchased from GIBCO company) in accordance with the conventional experimental technology; human DPP 8 was obtained in insect cells by our laboratory using baculovirus expression system Bac-to-Bac (purchased from GIBCO company) in accordance with the conventional experimental technology; Human DPP 9 was obtained in insect cells by our laboratory using baculovirus expression system Bac-to-Bac (purchased from GIBCO company) in accordance with the conventional experimental technology; and the substrate Ala-Pro-AMC was synthesized by GL Biochem (Shanghai) Ltd.
(§5) Principle of Activity test: DPP IV, DPP 8 and DPP 9 can specifically hydrolyze the substrate Ala-Pro-AMC to form product AMC, and AMC is excited by 355 nm of UV light to generate 460 nm of emission light. The linear change of fluorescence value at 460 nm in unit time was dynamically measured and DPP IV activity was obtained by calculation.
as §2, §3

Human DPP 9 = molecular target: T3, Human DPP 9 (Homo sapiens, UniProt Q86TI2); assay: DPP 9 activity screening (Ala-Pro-AMC fluorescence); conditions: N.I. = No Inhibition
T3 construct: made in house; host or cells: insect cells, baculovirus Bac-to-Bac
T3 sequence (Q86TI2 whole entry): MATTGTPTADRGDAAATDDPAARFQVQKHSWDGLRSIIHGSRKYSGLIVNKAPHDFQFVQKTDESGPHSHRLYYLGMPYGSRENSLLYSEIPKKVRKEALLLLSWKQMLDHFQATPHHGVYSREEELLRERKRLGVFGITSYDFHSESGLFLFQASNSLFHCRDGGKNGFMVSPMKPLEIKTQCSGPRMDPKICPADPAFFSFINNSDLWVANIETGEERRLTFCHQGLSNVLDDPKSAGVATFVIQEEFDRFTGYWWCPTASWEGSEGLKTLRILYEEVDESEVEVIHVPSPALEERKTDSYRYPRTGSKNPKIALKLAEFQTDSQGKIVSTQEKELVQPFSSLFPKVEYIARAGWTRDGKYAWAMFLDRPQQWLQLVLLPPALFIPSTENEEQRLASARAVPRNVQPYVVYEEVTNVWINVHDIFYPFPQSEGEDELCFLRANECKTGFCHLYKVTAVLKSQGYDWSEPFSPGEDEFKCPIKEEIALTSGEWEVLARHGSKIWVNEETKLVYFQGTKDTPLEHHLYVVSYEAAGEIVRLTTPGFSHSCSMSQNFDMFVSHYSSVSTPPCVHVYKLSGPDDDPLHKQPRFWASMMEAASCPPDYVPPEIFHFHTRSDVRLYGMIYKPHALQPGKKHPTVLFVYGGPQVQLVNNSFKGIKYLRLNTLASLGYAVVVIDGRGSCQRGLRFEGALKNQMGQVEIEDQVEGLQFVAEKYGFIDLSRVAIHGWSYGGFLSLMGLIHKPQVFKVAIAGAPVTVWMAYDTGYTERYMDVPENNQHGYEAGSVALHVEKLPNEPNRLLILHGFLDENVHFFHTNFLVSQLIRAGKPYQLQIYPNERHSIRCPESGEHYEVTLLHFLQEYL
Description: as §1, §4, §5, §2, §3

FAP = molecular target: T4, FAP (Homo sapiens, UniProt Q12884); assay: FAP inhibition (Table 1); conditions: N.I. = No Inhibition
T4 sequence (Q12884 1-760): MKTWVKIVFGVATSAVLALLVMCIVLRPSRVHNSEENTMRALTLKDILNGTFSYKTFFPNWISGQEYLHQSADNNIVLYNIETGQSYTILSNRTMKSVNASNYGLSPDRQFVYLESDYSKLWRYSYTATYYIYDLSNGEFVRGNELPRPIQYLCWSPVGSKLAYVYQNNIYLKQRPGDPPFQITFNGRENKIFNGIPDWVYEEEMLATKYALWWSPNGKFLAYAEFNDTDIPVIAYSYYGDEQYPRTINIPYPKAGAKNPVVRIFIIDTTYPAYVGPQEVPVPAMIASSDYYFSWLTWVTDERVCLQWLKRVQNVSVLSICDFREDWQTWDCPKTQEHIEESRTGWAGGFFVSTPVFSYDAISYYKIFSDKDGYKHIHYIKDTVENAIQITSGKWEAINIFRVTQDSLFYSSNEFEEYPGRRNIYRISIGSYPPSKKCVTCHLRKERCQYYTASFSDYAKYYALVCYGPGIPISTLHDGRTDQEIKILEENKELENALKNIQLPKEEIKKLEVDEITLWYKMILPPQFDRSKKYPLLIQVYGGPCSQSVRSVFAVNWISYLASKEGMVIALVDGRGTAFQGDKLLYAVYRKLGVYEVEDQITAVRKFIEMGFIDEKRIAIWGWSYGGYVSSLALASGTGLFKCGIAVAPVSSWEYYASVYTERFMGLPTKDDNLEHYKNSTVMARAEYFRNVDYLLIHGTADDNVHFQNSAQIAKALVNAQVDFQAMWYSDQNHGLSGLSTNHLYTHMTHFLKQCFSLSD

T1 sequence (P27487 29-766): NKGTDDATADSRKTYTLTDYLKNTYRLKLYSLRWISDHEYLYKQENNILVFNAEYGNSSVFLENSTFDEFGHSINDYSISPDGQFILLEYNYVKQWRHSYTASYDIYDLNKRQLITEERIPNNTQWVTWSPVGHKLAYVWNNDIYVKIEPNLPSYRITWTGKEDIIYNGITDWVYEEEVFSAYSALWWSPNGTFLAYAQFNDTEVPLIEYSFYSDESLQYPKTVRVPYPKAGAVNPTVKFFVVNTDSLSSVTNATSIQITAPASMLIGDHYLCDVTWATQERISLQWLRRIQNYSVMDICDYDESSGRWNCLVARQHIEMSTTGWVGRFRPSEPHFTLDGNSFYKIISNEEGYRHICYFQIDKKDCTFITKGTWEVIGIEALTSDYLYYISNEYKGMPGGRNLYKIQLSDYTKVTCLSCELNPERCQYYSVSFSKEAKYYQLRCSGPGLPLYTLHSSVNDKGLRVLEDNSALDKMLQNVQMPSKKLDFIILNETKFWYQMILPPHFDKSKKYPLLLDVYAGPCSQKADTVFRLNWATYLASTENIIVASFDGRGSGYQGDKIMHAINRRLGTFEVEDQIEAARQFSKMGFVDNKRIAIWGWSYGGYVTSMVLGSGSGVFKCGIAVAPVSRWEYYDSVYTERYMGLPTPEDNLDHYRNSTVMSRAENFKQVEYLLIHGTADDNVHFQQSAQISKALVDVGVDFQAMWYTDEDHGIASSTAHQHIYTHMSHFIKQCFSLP

| Compound | IC50 (human DPP IV) | DPP 7 IC50 [1] | IC50 (human DPP 8) | IC50 (Human DPP 9) | IC50 (FAP) | IC50 [1] | DPP 9 IC50 (Human DPP 9) | DPP 8 IC50 (human DPP 8) | FAP IC50 (FAP) |
| --- | --- | --- | --- | --- | --- | --- | --- | --- | --- |
| N#Cc1ccccc1Cn1c(N2CCC[C@@H](N)C2)nc2c(C(=O)NCCO)csc2c1=O [Compound 60, (R)-2-(3-aminopiperidin-1-yl)-3-(2-cyanobenzyl)-N-(2-hydroxyethyl)-4-oxo-3,4-dihydrothieno[3,2-d]-pyrimidine-7-carboxamide] | 0.0133 µM | N.I. | 36.8 µM | 110 µM | 57.1 µM | – | – | – | – |
| N#Cc1ccccc1Cn1c(N2CCC[C@@H](N)C2)nc2cc(C(=O)NCc3ccccc3Cl)sc2c1=O [Compound 110, (R)-2-(3-aminopiperidin-1-yl)-N-(2-chlorobenzyl)-3-(2-cyanobenzyl)-4-oxo-3,4-dihydrothieno[3,2-d]pyrimidine-6-carboxamide] | 0.0248 µM | N.I. | 80.6 µM | 51.2 µM | 133 µM | – | – | – | – |
| N#Cc1ccccc1Cn1c(N2CCC[C@@H](N)C2)nc2c(C(=O)NCC3CC3)csc2c1=O [Compound 73, (R)-2-(3-aminopiperidin-1-yl)-3-(2-cyanobenzyl)-N-(cyclopropylmethyl)-4-oxo-3,4-dihydrothieno[3,2-d]-pyrimidine-7-carboxamide] | 0.00892 µM | – | 9.08 µM | 66.8 µM | 14.6 µM | 159 µM | – | – | – |
| N#Cc1ccccc1Cn1c(N2CCC[C@@H](N)C2)nc2cc(C(=O)N3CCCC3)sc2c1=O [Compound 107, (R)-2-((2-(3-aminopiperidin-1-yl)-4-oxo-6-(pyrrolidine-1-carbonyl)thieno-[3,2-d]pyrimidin-3(4H)-yl)methyl)-benzonitrile] | 0.0241 µM | N.I. | 39.7 µM | 122 µM | 98.6 µM | – | – | – | – |
| COCCCNC(=O)c1cc2nc(N3CCC[C@@H](N)C3)n(Cc3ccccc3C#N)c(=O)c2s1 [Compound 112, (R)-2-(3-aminopiperidin-1-yl)-3-(2-cyanobenzyl)-N-(3-methoxypropyl)-4-oxo-3,4-dihydrothieno[3,2-d]-pyrimidine-6-carboxamide] | 0.0238 µM | N.I. | 69.1 µM | 159 µM | 213 µM | – | – | – | – |
| N#Cc1ccccc1Cn1c(N2CCC[C@@H](N)C2)nc2cc(C(=O)NC3CCCCC3)sc2c1=O [Compound 119, (R)-2-(3-aminopiperidin-1-yl)-3-(2-cyanobenzyl)-N-cyclohexyl-4-oxo-3,4-dihydrothieno[3,2-d]pyrimidine-6-carboxamide] | 0.0206 µM | N.I. | 94 µM | – | 113 µM | – | N.I. | – | – |
| N#Cc1ccccc1Cn1c(N2CCC[C@@H](N)C2)nc2cc(C(=O)N3CCCCC3)sc2c1=O [Compound 108, (R)-2-((2-(3-aminopiperidin-1-yl)-4-oxo-6-(piperidine-1-carbonyl)thieno-[3,2-d]pyrimidin-3(4H)-yl)methyl)-benzonitrile] | 0.0118 µM | N.I. | 15.1 µM | 111 µM | 27 µM | – | – | – | – |
| N#Cc1ccccc1Cn1c(N2CCC[C@@H](N)C2)nc2cc(C(=O)N3CCOCC3)sc2c1=O [Compound 118, (R)-2-((2-(3-aminopiperidin-1-yl)-6-(morpholine-4-carbonyl)-4-oxothieno-[3,2-d]pyrimidin-3(4H)-yl)methyl)-benzonitrile] | 0.0185 µM | N.I. | 83.6 µM | – | 80.2 µM | – | N.I. | – | – |
| CN1CCN(C(=O)c2csc3c(=O)n(Cc4ccccc4C#N)c(N4CCC[C@@H](N)C4)nc23)CC1 [Compound 70, (R)-2-((2-(3-aminopiperidin-1-yl)-7-(4-methylpiperazine-1-carbonyl)-4-oxothieno[3,2-d]pyrimidin-3(4H)-yl)-methyl)benzonitrile] | 0.0186 µM | N.I. | 38.9 µM | 94.5 µM | 136 µM | – | – | – | – |
| N#Cc1ccccc1Cn1c(N2CCC[C@@H](N)C2)nc2cc(C(N)=O)sc2c1=O [Compound 97, (R)-2-(3-aminopiperidin-1-yl)-3-(2-cyanobenzyl)-4-oxo-3,4-dihydrothieno-[3,2-d]pyrimidine-6-carboxamide] | 0.0204 µM | N.I. | – | – | – | – | N.I. | N.I. | N.I. |
| N#Cc1ccccc1Cn1c(N2CCC[C@@H](N)C2)nc2c(C(=O)NC3CCOCC3)csc2c1=O [Compound 81, (R)-2-(3-aminopiperidin-1-yl)-3-(2-cyanobenzyl)-4-oxo-N-(tetrahydro-2H-pyran-4-yl)-3,4-dihydrothieno[3,2-d]-pyrimidine-7-carboxamide] | 0.0202 µM | N.I. | 59.4 µM | 348 µM | 44 µM | – | – | – | – |
| CC(C)CNC(=O)c1csc2c(=O)n(Cc3ccccc3C#N)c(N3CCC[C@@H](N)C3)nc12 [Compound 79, (R)-2-(3-aminopiperidin-1-yl)-3-(2-cyanobenzyl)-N-isobutyl-4-oxo-3,4-dihydrothieno[3,2-d]pyrimidine-7-carboxamide] | 0.0151 µM | – | 47 µM | 226 µM | 40.9 µM | 357 µM | – | – | – |
| Cl.N#Cc1ccccc1Cn1c(N2CCC[C@@H](N)C2)nc2cc(C(=O)O)sc2c1=O [Compound 39, (R)-2-(3-aminopiperidin-1-yl)-3-(2-cyanobenzyl)-4-oxo-3,4-dihydrothieno-[3,2-d]pyrimidine-6-carboxylic acid hydrochloride] | 0.0283 µM | N.I. | – | – | – | – | N.I. | N.I. | N.I. |
| CC(C)NC(=O)c1cc2nc(N3CCC[C@@H](N)C3)n(Cc3ccccc3C#N)c(=O)c2s1 [Compound 115, (R)-2-(3-aminopiperidin-1-yl)-3-(2-cyanobenzyl)-N-isopropyl-4-oxo-3,4-dihydrothieno[3,2-d]pyrimidine-6-carboxamide] | 0.0145 µM | N.I. | 181 µM | 167 µM | 146 µM | – | – | – | – |
| N#Cc1ccccc1Cn1c(N2CCC[C@@H](N)C2)nc2cc(CN3CCOCC3)sc2c1=O [Compound 95, (R)-2-((2-(3-aminopiperidin-1-yl)-6-(morpholinomethyl)-4-oxothieno-[3,2-d]pyrimidin-3(4H)-yl)methyl)benzonitrile] | 0.0592 µM | N.I. | – | – | – | – | N.I. | N.I. | N.I. |
| N#Cc1ccccc1Cn1c(N2CCC[C@@H](N)C2)nc2c(C(=O)NCc3ccc(C(F)(F)F)cc3)csc2c1=O [Compound 68, (R)-2-(3-aminopiperidin-1-yl)-3-(2-cyanobenzyl)-4-oxo-N-(4-(trifluoromethyl)benzyl)-3,4-dihydrothieno[3,2-d]pyrimidine-7-carboxamide] | 0.023 µM | – | 8.16 µM | 100 µM | 8.78 µM | 145 µM | – | – | – |
| N#Cc1ccccc1Cn1c(N2CCC[C@@H](N)C2)nc2c(C(=O)NCC3COC3)csc2c1=O [Compound 82, (R)-2-(3-aminopiperidin-1-yl)-3-(2-cyanobenzyl)-N-(oxetan-3-ylmethyl)-4-oxo-3,4-dihydrothieno[3,2-d]pyrimidine-7-carboxamide] | 0.0659 µM | N.I. | 18.1 µM | – | 16.5 µM | – | N.I. | – | – |
